ChEMBL document CHEMBL2406969, “Gombamide A, a cyclic thiopeptide from the sponge Clathria gombawuiensis” (2013)
Numbered stars: 1 amine (or outer) side, 2 acyl side, 3 side chain; on linkers, the order of the positions; unused ones are H or OH. Bridge positions count the residues as written; N and C are the ends. Square brackets hold non-standard residues; d marks the D form. Peptide text beside a SMILES is read from it. * marks the point of attachment. X1 = O=C([C@@H]1CCCN1C[C@@H]1CCCN1[*:1])[*:2]; pGlu = O=C1CC[C@@H](C(=O)O)N1; X2 = Oc1ccc(/C=C/N*)cc1

How the values were obtained:
[1] = test system: A549; experiment: Cytotoxicity against human A549 cells; format: functional; details: read-out: LC50 (the source's name)
[2] = test system: K562; experiment: Cytotoxicity against human K562 cells; format: functional; details: read-out: LC50 (the source's name)
[3] = target: Sodium/potassium-transporting ATPase (Homo sapiens) (UniProt P05023+P14415+P05026+P50993+P54709+P13637+Q13733+P54710)
Description: Inhibition of Na+/K+ ATPase (unknown origin)

Structure (SMILES)	CC50 [1] [µM]	CC50 [2] [µM]	LC50 [3] [µM]
O=C1CC[C@@H](C(=O)N[C@H]2CSSC[C@@H](C(=O)N/C=C/c3ccc(O)cc3)NC(=O)[C@H](Cc3ccccc3)NC(=O)[C@@H]3CCCN3C[C@@H]3CCCN3C2=O)N1 ([pGlu]C[X1]FC-X2; disulfide 2-5)	7.1	6.9	17.8
COc1cccc2c1C(=O)c1c(O)c3c(c(O)c1C2=O)C[C@@](O)(C(=O)CO)C[C@@H]3O[C@H]1C[C@H](N)[C@H](O)[C@H](C)O1 [DOXORUBICIN]	0.5	0.7	–
